Assay results taken from patent US20030166645A1, “Novel nitrofuran-containing heterocyclic compounds and uses thereof” (priority 2001, published 2003).
≈ marks a conversion by molar mass, not a printed value.

Tests used:
Assay in all cases: Microdilution antimicrobial susceptibility test (MIC)
Type in all cases: cell-based
[1] = test system: S aureus; settings: broth microdilution, 18-24 h, MIC = 90% inhibition of growth
[2] = test system: E coli; settings: broth microdilution, 18-24 h, MIC = 90% inhibition of growth
[3] = test system: S cerevisiae; settings: broth microdilution, 18-24 h, MIC = 90% inhibition of growth
[4] = test system: M. catarrhalis; settings: broth microdilution, 18-24 h, MIC = 90% inhibition of growth
[5] = test system: E coli (ImpA); settings: broth microdilution, 18-24 h, MIC = 90% inhibition of growth
Experimental: Microdilution Antimicrobial Susceptibility Test Assay
Stock solutions of tested compounds were prepared in N,N-dimethylformamide (DMF) at a concentration of 5 mg/mL. Working solutions of the tested compounds were then prepared from the stock solutions, in Mueller-Hinton broth (MHB) with a starting concentration of 64 μg/mL.
Bacterial inocula were prepared from overnight culture (i.e., one fresh colony from agar plate in 5 ml MHB; H. influenzae was grown in MHB with the addition of yeast extract, haematin, and NAD), centrifuged 2×5 min/3000 rpm (for S. pneumoniae and H. influenzae, 2×10 min/3000 rpm), and dispensed in 5 ml of fresh MHB each time, such that the bacterial suspension is diluted to obtain 100 colony forming units (cfu) in a microplate well (100 μl total volume).
Microplate wells were filled with two-fold dilutions of test compound (50 Al), starting with 64 μg/ml. Wells were then filled with 50 μl of bacterial inoculum (final volume: 100 μl/well). The plates were incubated at 37° C. for 18-24 hours (S. pneumoniae was grown in a CO2-enriched atmosphere).

[6] = test system: H influenzae; settings: broth microdilution, 18-24 h, MIC = 90% inhibition of growth
[7] = test system: S pneumoniae; settings: broth microdilution, 18-24 h, CO2-enriched atmosphere, MIC = 90% inhibition of growth
[8] = test system: E faecalis; settings: broth microdilution, 18-24 h, MIC = 90% inhibition of growth
[9] = test system: P aeruginosa; settings: broth microdilution, 18-24 h, MIC = 90% inhibition of growth

SMILES: O=[N+]([O-])c1ccc(-c2nnc(S)n2Cc2ccccc2)o1 [Compound 135]
- MIC S aureus MIC2 [1]: 32 µg/mL (≈ 106 µM)
- MIC E coli MIC2 [2]: >64 µg/mL
- MIC S cerevisiae MIC7 [3]: >64 µg/mL
- MIC M. catarrhalis MIC2 [4]: 1 µg/mL (≈ 3.31 µM)
- MIC E coli (ImpA) MIC9 [5]: 32 µg/mL (≈ 106 µM)
- MIC H influenzae MIC4 [6]: 64 µg/mL (≈ 212 µM)
- MIC S pneumoniae MIC6 [7]: 8 µg/mL (≈ 26.5 µM)
- MIC E faecalis MIC2 [8]: 16 µg/mL (≈ 52.9 µM)

SMILES: Cn1c(SCc2ccncc2)nnc1-c1ccc([N+](=O)[O-])o1 [Compound 129]
- MIC S aureus MIC2 [1]: 16 µg/mL (≈ 50.4 µM)
- MIC E coli MIC2 [2]: 64 µg/mL (≈ 202 µM)
- MIC S cerevisiae MIC7 [3]: >64 µg/mL
- MIC M. catarrhalis MIC2 [4]: 0.5 µg/mL (≈ 1.58 µM)
- MIC E coli (ImpA) MIC9 [5]: 4 µg/mL (≈ 12.6 µM)
- MIC H influenzae MIC4 [6]: 16 µg/mL (≈ 50.4 µM)
- MIC S pneumoniae MIC6 [7]: 16 µg/mL (≈ 50.4 µM)
- MIC E faecalis MIC2 [8]: 64 µg/mL (≈ 202 µM)

SMILES: O=[N+]([O-])c1ccc(-c2nnc(S)n2-c2ccc(Oc3ccccc3)cc2)o1 [Compound 143]
- MIC S aureus MIC2 [1]: 0.25 µg/mL (≈ 0.657 µM)
- MIC E coli MIC2 [2]: >64 µg/mL
- MIC S cerevisiae MIC7 [3]: >64 µg/mL
- MIC M. catarrhalis MIC2 [4]: <0.12 µg/mL
- MIC E coli (ImpA) MIC9 [5]: <0.12 µg/mL
- MIC H influenzae MIC4 [6]: >64 µg/mL
- MIC P aeruginosa MIC2 [9]: >64 µg/mL
- MIC S pneumoniae MIC6 [7]: 0.5 µg/mL (≈ 1.31 µM)
- MIC E faecalis MIC2 [8]: 1 µg/mL (≈ 2.63 µM)

SMILES: O=[N+]([O-])c1ccc(-c2nnc(S)n2-c2ccc(I)cc2)o1 [Compound 138]
- MIC S aureus MIC2 [1]: 0.5 µg/mL (≈ 1.21 µM)
- MIC E coli MIC2 [2]: >64 µg/mL
- MIC S cerevisiae MIC7 [3]: 16 µg/mL (≈ 38.6 µM)
- MIC M. catarrhalis MIC2 [4]: <0.12 µg/mL
- MIC E coli (ImpA) MIC9 [5]: 0.25 µg/mL (≈ 0.604 µM)
- MIC H influenzae MIC4 [6]: 8 µg/mL (≈ 19.3 µM)
- MIC E faecalis MIC2 [8]: 1 µg/mL (≈ 2.41 µM)

SMILES: CCn1c(S)nnc1-c1ccc([N+](=O)[O-])o1 [Compound 126]
- MIC ([1]; read-out: MIC S aureus MIC2): > 64 µg/mL
- MIC ([2]; read-out: MIC E coli MIC2): > 64 µg/mL
- MIC ([3]; read-out: MIC S cerevisiae MIC7): > 64 µg/mL
- MIC ([4]; Moraxella catarrhalis, read-out: MIC M. catarrhalis MIC2): 4 µg/mL (≈ 16.6 µM)
- MIC ([6]; read-out: MIC H influenzae MIC4): 32 µg/mL (≈ 133 µM)
- MIC ([7]; read-out: MIC S pneumoniae MIC6): 16 µg/mL (≈ 66.6 µM)
- MIC ([8]; read-out: MIC E faecalis MIC2): 64 µg/mL (≈ 266 µM)

SMILES: O=[N+]([O-])c1ccc(-c2nnc(S(=O)(=O)O)n2Cc2ccccc2)o1 [Compound 128]
- MIC S aureus MIC2 [1]: >64 µg/mL
- MIC E coli MIC2 [2]: >64 µg/mL
- MIC S cerevisiae MIC7 [3]: >64 µg/mL
- MIC M. catarrhalis MIC2 [4]: 16 µg/mL (≈ 45.7 µM)
- MIC E coli (ImpA) MIC9 [5]: >64 µg/mL
- MIC H influenzae MIC4 [6]: 64 µg/mL (≈ 183 µM)
- MIC P aeruginosa MIC2 [9]: >64 µg/mL
- MIC S pneumoniae MIC6 [7]: 64 µg/mL (≈ 183 µM)
- MIC E faecalis MIC2 [8]: >64 µg/mL

SMILES: O=[N+]([O-])c1ccc(-c2nnc(S)n2-c2ccc(Br)cc2)o1 [Compound 141]
- MIC S aureus MIC2 [1]: 0.25 µg/mL (≈ 0.681 µM)
- MIC E coli MIC2 [2]: >64 µg/mL
- MIC S cerevisiae MIC7 [3]: 64 µg/mL (≈ 174 µM)
- MIC M. catarrhalis MIC2 [4]: 0.125 µg/mL (≈ 0.34 µM)
- MIC E coli (ImpA) MIC9 [5]: <0.12 µg/mL
- MIC H influenzae MIC4 [6]: 8 µg/mL (≈ 21.8 µM)
- MIC S pneumoniae MIC6 [7]: 2 µg/mL (≈ 5.45 µM)
- MIC E faecalis MIC2 [8]: 2 µg/mL (≈ 5.45 µM)

SMILES: O=[N+]([O-])c1ccc(-c2nnc(S)n2-c2ccccc2)o1 [Compound 134]
- MIC S aureus MIC2 [1]: 2 µg/mL (≈ 6.94 µM)
- MIC S cerevisiae MIC7 [3]: >64 µg/mL
- MIC M. catarrhalis MIC2 [4]: 0.25 µg/mL (≈ 0.867 µM)
- MIC E coli (ImpA) MIC9 [5]: 2 µg/mL (≈ 6.94 µM)
- MIC H influenzae MIC4 [6]: 8 µg/mL (≈ 27.8 µM)
- MIC S pneumoniae MIC6 [7]: 8 µg/mL (≈ 27.8 µM)
- MIC E faecalis MIC2 [8]: 64 µg/mL (≈ 222 µM)

SMILES: C=CCn1c(S)nnc1-c1ccc([N+](=O)[O-])o1 [Compound 130]
- MIC S aureus MIC2 [1]: >64 µg/mL
- MIC E coli MIC2 [2]: >64 µg/mL
- MIC S cerevisiae MIC7 [3]: >64 µg/mL
- MIC M. catarrhalis MIC2 [4]: 4 µg/mL (≈ 15.9 µM)
- MIC E coli (ImpA) MIC9 [5]: 64 µg/mL (≈ 254 µM)
- MIC H influenzae MIC4 [6]: 32 µg/mL (≈ 127 µM)
- MIC S pneumoniae MIC6 [7]: 16 µg/mL (≈ 63.4 µM)
- MIC E faecalis MIC2 [8]: 64 µg/mL (≈ 254 µM)

SMILES: O=[N+]([O-])c1ccc(-c2nnc(S)n2C2CCCCC2)o1 [Compound 137]
- MIC S aureus MIC2 [1]: >64 µg/mL
- MIC E coli MIC2 [2]: >64 µg/mL
- MIC S cerevisiae MIC7 [3]: >64 µg/mL
- MIC M. catarrhalis MIC2 [4]: 1 µg/mL (≈ 3.4 µM)
- MIC E coli (ImpA) MIC9 [5]: 32 µg/mL (≈ 109 µM)
- MIC H influenzae MIC4 [6]: 16 µg/mL (≈ 54.4 µM)
- MIC S pneumoniae MIC6 [7]: 8 µg/mL (≈ 27.2 µM)
- MIC E faecalis MIC2 [8]: 32 µg/mL (≈ 109 µM)
